Consider 30 molecules from US9340554B2, “IRAK inhibitors and uses thereof” (Nimbus Iris, Inc., priority 2011, dated 2016).

pIC50: −log10 of the molar value. Where only a bound is given, the exact number is not on record here.

The target of this assay is T1, IRAK4 (Homo sapiens, UniProt Q9NWZ3).
T1 construct: purchased CARNA Bioscience 09-145
T1 sequence (Q9NWZ3 1-460): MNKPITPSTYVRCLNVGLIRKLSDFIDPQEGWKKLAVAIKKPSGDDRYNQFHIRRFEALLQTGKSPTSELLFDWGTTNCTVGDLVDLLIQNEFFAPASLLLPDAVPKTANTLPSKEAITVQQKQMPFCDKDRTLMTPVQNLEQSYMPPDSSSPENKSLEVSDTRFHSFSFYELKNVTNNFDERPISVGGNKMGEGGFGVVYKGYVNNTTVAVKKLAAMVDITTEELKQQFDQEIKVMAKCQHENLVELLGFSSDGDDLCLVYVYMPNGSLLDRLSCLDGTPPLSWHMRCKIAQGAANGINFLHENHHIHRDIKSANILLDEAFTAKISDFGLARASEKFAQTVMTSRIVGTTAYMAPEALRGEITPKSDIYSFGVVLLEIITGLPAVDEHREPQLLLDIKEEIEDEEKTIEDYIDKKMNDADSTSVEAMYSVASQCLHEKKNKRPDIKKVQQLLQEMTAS
Put plainly: IRAK-4 activity inhibition assay (Caliper, Peptide 8, 37 μM ATP). The settings on record: 3.5 nM IRAK4, 1.5 μM Peptide 8, 37 μM ATP, 28° C. 40 minutes; read-out: IRAK-4 activity inhibition IC50. The assay is classed as biochemical. How it is done: A 1× kinase base buffer was prepared from 50 mM HEPES, pH 7.5 and 0.0015% Brij-35. A stop buffer was prepared from 100 mM HEPES, pH 7.5, 0.015% Brij-35, 0.2% Coating Reagent #3, and 50 mM EDTA.
Test compound was diluted to 50× of the final desired highest inhibitor concentration in reaction by 100% DMSO. 100 ul of this compound dilution was transferred to a well in a 96-well plate.
Test compound was serially diluted by transferring 30 μl to 60 μl of 100% DMSO in the next well and so forth for a total of 10 concentrations. 100 μl of 100% DMSO was added to two empty wells for no compound control and no enzyme control in the same 96-well plate.
A new 96-well plate was marked as intermediate plate. 5 μl of compound serial dilution was transferred from source plate to the corresponding wells of the intermediate plate. 45 μl of 1× kinase base buffer (KB buffer) was added to each well of the intermediate plate. The intermediate plate was placed for 10 min on a shaker.
5 μl of each well was transferred from the 96-well intermediate plate to a 384-well plate in duplicates. […] A2 of the 96-well plate is transferred to A3 and A4 of the 384-well plate, and so on.
IRAK4 and DTT in 1× kinase base buffer was added.
Assay plate already contained 5 μl of compound in 10% DMSO. Added 10 μl of 2.5× enzyme solution to each well of the 384-well assay plate, except no enzyme control wells. […] Added 10 μl of 1× kinase base buffer to no enzyme control wells in the assay plate. Incubated at room temperature for 10 min.
Added 10 μl of 2.5× peptide solution to each well of the 384-well assay plate. […] Incubated at 28° C. for 40 minutes. Added 25 μl of stop buffer to stop reaction. Collected data on Caliper.
Copied conversion % data from Caliper program. Converted conversion % values to percent inhibition values. Percent inhibition=(max−conversion %)/(max−min)*100, where “max” means the conversion % of DMSO control and “min” means the conversion % of no enzyme control.
The compound numbers correspond to the compound numbers in Table 1. […] “NA” stands for “not assayed.”
As for `O[C@H]1CC[C@H](Nc2ncnc3sc4c(c23)CCC4)CC1` [Compound I-7, trans-4-((6,7-dihydro-5H-cyclopenta[4,5]thieno[2,3-d]pyrimidin-4-yl)amino)cyclohexanol], the negative-log IC50 (pIC50) was 4.70 to 5.30. For `CC(C)N[C@H]1CC[C@@H](Nc2ncnc3sc4c(c23)CCC4)CC1` [Compound I-161], the pIC50 is less than 4.30. Under `c1nc(OCCN2CCNCC2)c2c3c(sc2n1)CCC3` [Compound I-140, 4-(2-(piperazin-1-yl)ethoxy)-6,7-dihydro-5H-cyclopenta[4,5]thieno[2,3-d]pyrimidine] stands 4.30 to 4.70; under `CN(C)CCN1CCN(c2ncnc3sc4c(c23)CCC4)CC1` [Compound I-150, 2-(4-(6,7-dihydro-5H-cyclopenta[4,5]thieno[2,3-d]pyrimidin-4-yl)piperazin-1-yl)-N,N-dimethylethanamine], 4.30 to 4.70; under `CC1CCc2sc3ncnc(N[C@H]4CC[C@H](O)CC4)c3c2C1` (relative stereo) [Compound I-37, trans-4-((6-methyl-5,6,7,8-tetrahydrobenzo[4,5]thieno[2,3-d]pyrimidin-4-yl)amino)cyclohexanol], 4.70 to 5.30. Under `CC1(C)CCc2sc3ncnc(N[C@H]4CC[C@H](O)CC4)c3c2C1` [Compound I-43, trans-4-((6,6-dimethyl-5,6,7,8-tetrahydrobenzo[4,5]thieno[2,3-d]pyrimidin-4-yl)amino)cyclohexanol] stands 4.70 to 5.30; under `CN(C(=O)Cc1ccccn1)[C@H]1CC[C@H](Nc2ncnc3sc4c(c23)CCC4)CC1` [Compound I-103, N-methyl-2-(pyridin-2-yl)-N-[4-([7-thia-9,11-diazatricyclo[6.4.0.0^[2,6]]dodeca-1(8),2(6),9,11-tetraen-12-yl]amino)cyclohexyl]acetamide], 4.30 to 4.70. For `c1nc(N[C@H]2CC[C@H](N3CCCCC3)CC2)c2c3c(sc2n1)CCC3` [Compound I-143, N-((1r,4r)-4-(piperidin-1-yl)cyclohexyl)-6,7-dihydro-5H-cyclopenta[4,5]thieno[2,3-d]pyrimidin-4-amine] the value was greater than 5.30; for `CN(CCc1ccccc1Cl)[C@H]1CC[C@H](Nc2ncnc3sc4c(c23)CCC4)CC1` [Compound I-112, 1-N-[2-(2-chlorophenyl)ethyl]-1-N-methyl-4-N-[7-thia-9,11-diazatricyclo[6.4.0.0^[2,6]]dodeca-1(12),2(6),8,10-tetraen-12-yl]cyclohexane-1,4-diamine], greater than 5.30.

As to `COCCN(C)[C@H]1CC[C@H](Nc2ncnc3sc4c(c23)CCC4)CC1` [Compound I-169, 1-N-(2-methoxyethyl)-1-N-methyl-4-N-[7-thia-9,11-diazatricyclo[6.4.0.0^[2,6]]dodeca-1(8),2(6),9,11-tetraen-12-yl]cyclohexane-1,4-diamine], the pIC50 is greater than 5.30. Consider `CN(C)CC1CC(Oc2ncnc3sc4c(c23)CCC4)C1` (stereo not drawn) [Compound I-141, 1-(3-((6,7-dihydro-5H-cyclopenta[4,5]thieno[2,3-d]pyrimidin-4-yl)oxy)cyclobutyl)-N,N-dimethylmethanamine], for which the negative logarithm of the IC50 (pIC50) was 4.70 to 5.30. Under `CN(Cc1ncccc1F)[C@H]1CC[C@H](Nc2ncnc3sc4c(c23)CCC4)CC1` [Compound I-104, 1-N-[(3-fluoropyridin-2-yl)methyl]-1-N-methyl-4-N-[7-thia-9,11-diazatricyclo[6.4.0.0^[2,6]]dodeca-1(12),2(6),8,10-tetraen-12-yl]cyclohexane-1,4-diamine] stands greater than 5.30; under `c1ccc(CCN[C@H]2CC[C@H](Nc3ncnc4sc5c(c34)CCC5)CC2)cc1` [Compound I-115, 1-N-(2-phenylethyl)-4-N-[7-thia-9,11-diazatricyclo[6.4.0.0^[2,6]]dodeca-1(12),2(6),8,10-tetraen-12-yl]cyclohexane-1,4-diamine], greater than 5.30. Under `CN(C1CCOCC1)[C@H]1CC[C@H](Nc2ncnc3sc4c(c23)CCC4)CC1` [Compound I-132, 1-N-methyl-1-N-(oxan-4-yl)-4-N-[7-thia-9,11-diazatricyclo[6.4.0.0[2,6]]dodeca-1(8),2(6),9,11-tetraen-12-yl]cyclohexane-1,4-diamine] stands greater than 5.30. As to `C[C@@H](Nc1ncnc2sc3c(c12)CCC3)C(=O)O` [Compound I-153], the pIC50 was less than 4.30.

`Cc1sc2ncnc(N3CCC(C(=O)Nc4cc(Cl)ccc4Cl)CC3)c2c1C` [Compound I-32]: the pIC50 was 4.70 to 5.30. `CN(CCc1ccccn1)[C@H]1CC[C@H](Nc2ncnc3sc4c(c23)CCC4)CC1` [Compound I-106, 1-N-methyl-1-N-[2-(pyridin-2-yl)ethyl]-4-N-[7-thia-9,11-diazatricyclo[6.4.0.0^[2,6]]dodeca-1(8),2(6),9,11-tetraen-12-yl]cyclohexane-1,4-diamine]: the negative-log IC50 (pIC50) is greater than 5.30. For `CN[C@H]1CC[C@@H](Nc2ncnc3sc4c(c23)CCC4)CC1` [Compound I-156, (1s,4s)-1-N-methyl-4-N-[7-thia-9,11-diazatricyclo[6.4.0.0^[2,6]]dodeca-1(12),2(6),8,10-tetraen-12-yl]cyclohexane-1,4-diamine] the value was 4.30 to 4.70; for `NC(=O)C1CCN(c2ncnc3sc4c(c23)CCCC4)CC1` [Compound I-2], 4.30 to 4.70. For the molecule `CC1CCc2sc3ncnc(N[C@H]4CC[C@H](N)CC4)c3c2C1` (stereo partly drawn) [Compound I-51, trans-N^1-(6-methyl-5,6,7,8-tetrahydrobenzo[4,5]thieno[2,3-d]pyrimidin-4-yl)cyclohexane-1,4-diamine], the pIC50 was greater than 5.30. For `FC(F)(F)CN[C@H]1CC[C@H](Nc2ncnc3sc4c(c23)CCC4)CC1` [Compound I-138, 1-N-[7-thia-9,11-diazatricyclo[6.4.0.0^[2,6]]dodeca-1(8),2(6),9,11-tetraen-12-yl]-4-N-(2,2,2-trifluoroethyl)cyclohexane-1,4-diamine] the value was 4.70 to 5.30; for `CC(C)NC(=O)CN(C)[C@H]1CC[C@H](Nc2ncnc3sc4c(c23)CCC4)CC1` [Compound I-125, 2-(((1r,4r)-4-((6,7-dihydro-5H-cyclopenta[4,5]thieno[2,3-d]pyrimidin-4-yl)amino)cyclohexyl)(methyl)amino)-N-isopropylacetamide], greater than 5.30; for `NC(=O)C1CCN(c2ncnc3sc4c(c23)CCCC4)CC1` [Compound I-1], 4.70 to 5.30.

Regarding `N[C@H]1CC[C@H](Oc2ncnc3sc4c(c23)CCC4)CC1` [Compound I-61, trans-4-((6,7-dihydro-5H-cyclopenta[4,5]thieno[2,3-d]pyrimidin-4-yl)oxy)cyclohexanamine], the pIC50 is greater than 5.30. Under `CN(CCC(N)=O)[C@H]1CC[C@H](Nc2ncnc3sc4c(c23)CCC4)CC1` [Compound I-109, 3-[methyl[4-([7-thia-9,11-diazatricyclo[6.4.0.0^[2,6]]dodeca-1(8),2(6),9,11-tetraen-12-yl]amino)cyclohexyl]amino]propanamide] stands greater than 5.30; under `CCN(CC)[C@H]1CC[C@H](Nc2ncnc3sc4c(c23)CCC4)CC1` [Compound I-72, trans-N^1-(6,7-dihydro-5H-cyclopenta[4,5]thieno[2,3-d]pyrimidin-4-yl)-N^4,N^4-diethylcyclohexane-1,4-diamine], greater than 5.30. Under `CN(CC(N)=O)[C@H]1CC[C@H](Nc2ncnc3sc4c(c23)CCC4)CC1` [Compound I-122, 2-(((1r,4r)-4-((6,7-dihydro-5H-cyclopenta[4,5]thieno[2,3-d]pyrimidin-4-yl)amino)cyclohexyl)(methyl)amino)acetamide] stands greater than 5.30; under `CN1CCC(COc2ncnc3sc4c(c23)CCC4)CC1` [Compound I-64], 4.30 to 4.70; under `C[C@@H]1CCc2sc3ncnc(N4CCC(C(N)=O)CC4)c3c2C1` [Compound I-45], 4.70 to 5.30. Take `CN[C@H]1CC[C@H](Nc2ncnc3sc4c(c23)CC(C)CC4)CC1` (stereo partly drawn) [Compound I-52, trans-N^1-methyl-N4-(6-methyl-5,6,7,8-tetrahydrobenzo[4,5]thieno[2,3-d]pyrimidin-4-yl)cyclohexane-1,4-diamine]: the pIC50 is greater than 5.30.

The pIC50 is −log10 of the IC50, conventionally taken in molar units.
